The source of these data is paper PMC8781192, “An In Silico and an In Vitro Inhibition Analysis of Glycogen Phosphorylase by Flavonoids, Styrylchromones, and Pyrazoles” (Nutrients, 2022).

For one assay, the target named is T1, rabbit mGPa (Oryctolagus cuniculus, UniProt P00489).
T1 construct: purchased Creative Enzymes
T1 sequence (P00489 2-843 limits assumed): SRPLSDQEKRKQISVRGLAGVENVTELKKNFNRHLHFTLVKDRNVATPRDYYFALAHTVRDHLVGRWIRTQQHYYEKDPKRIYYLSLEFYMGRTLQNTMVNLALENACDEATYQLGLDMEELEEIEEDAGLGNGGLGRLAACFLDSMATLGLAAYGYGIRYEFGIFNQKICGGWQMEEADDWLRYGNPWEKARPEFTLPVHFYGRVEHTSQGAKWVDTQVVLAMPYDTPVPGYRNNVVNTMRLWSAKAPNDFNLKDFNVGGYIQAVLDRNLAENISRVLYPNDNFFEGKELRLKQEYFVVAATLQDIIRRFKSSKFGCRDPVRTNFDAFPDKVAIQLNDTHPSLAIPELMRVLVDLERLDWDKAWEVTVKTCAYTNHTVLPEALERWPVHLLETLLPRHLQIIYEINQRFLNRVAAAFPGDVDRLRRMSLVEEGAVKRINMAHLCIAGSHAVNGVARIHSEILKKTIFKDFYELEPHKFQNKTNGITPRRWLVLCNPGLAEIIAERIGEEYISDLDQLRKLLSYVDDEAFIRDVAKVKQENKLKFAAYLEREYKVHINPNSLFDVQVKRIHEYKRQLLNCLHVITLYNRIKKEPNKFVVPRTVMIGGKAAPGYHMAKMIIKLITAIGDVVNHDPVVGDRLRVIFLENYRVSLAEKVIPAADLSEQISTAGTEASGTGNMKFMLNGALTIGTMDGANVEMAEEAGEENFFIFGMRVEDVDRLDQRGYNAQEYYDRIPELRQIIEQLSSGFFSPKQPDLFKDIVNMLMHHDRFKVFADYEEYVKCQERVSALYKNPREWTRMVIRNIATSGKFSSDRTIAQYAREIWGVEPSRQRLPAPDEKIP
The experiment in a line: In vitro glycogen phosphorylase inhibition assay (direction of glycogen synthesis, colorimetric phosphate). Type of assay: biochemical. The conditions noted are these: Table S2 summary of activities; read-out: IC50. Here is the method: The GP activity was measured using a previously optimized and validated method. In each assay, GP activity was measured by the direction of glycogen synthesis, which involved monitoring the colorimetric determination of inorganic phosphate deriving from glucose 1-phosphate. […] The enzymatic reaction was then started with the addition of a 50 mM HEPES buffer solution, with a pH of 7.2, containing 100 mM KCl, 2.5 mM MgCl2, 0.25 mM glucose 1-phosphate, and 0.25 mg/mL glycogen incubated for 30 min at 37 °C. After this incubation time, the reagent for colorimetric phosphate quantitation, BIOMOL® Green, was added to the reaction mixture. The reaction was monitored in a microplate reader (Synergy HT, BioTek Instruments, Winooski, VT, USA) at 620 nm.
With `O=c1c(O)c(/C=C/c2ccc(O)c(O)c2)oc2c(O)c(O)ccc12` [Compound 24], the 50% inhibitory concentration (IC50) was > 25 µM.
With `O=c1cc(-c2ccc(O)c(O)c2)oc2ccccc12` [Compound 39], the concentration for half-maximal inhibition (IC50) was > 50 µM.
Same read-out and setting: in the case of `O=c1cc(-c2ccc(O)c(O)c2)oc2cc(O)ccc12` [Compound 40] it was > 50 µM; in that of `O=c1cc(-c2ccc(O)c(O)c2)oc2cccc(O)c12` [Compound 41], > 50 µM.
Take `O=c1cc(-c2ccc(O)c(O)c2)oc2cc(O)cc(O)c12` [Compound 43, Luteolin]: the half-inhibitory concentration (IC50) is > 50 µM.
The same measure, in the same setting: next, `O=c1c(O)c(-c2ccc(O)c(O)c2)oc2cc(O)cc(O)c12` [Compound 45, Quercetin]: > 50 µM.
On to `O=c1cc(-c2ccc(O)cc2)oc2cc(O)c(O)c(O)c12` [Compound 48, Scutellarein], for which the IC50 is > 50 µM.
Turning to `O=c1c(O)c(-c2ccc(O)c(O)c2)oc2cc(O)c(O)c(O)c12` [Compound 50, Quercetagetin], the IC50 was > 50 µM.

The same assay, now with this note: at 25 μM (highest concentration tested); mean ± SEM; read-out: GPa inhibitory activity (%).
On to `O=c1c(O)c(/C=C/c2ccc(O)c(O)c2)oc2c(O)c(O)ccc12` [Compound 24], for which the inhibition at 25 µM turned out to be 33.7 ± 6.5%.

The same assay, now with this note: at 50 μM (highest concentration tested); mean ± SEM; read-out: GPa inhibitory activity (%).
For `Oc1ccccc1-c1n[nH]cc1/C=C/c1ccccc1` [Compound 1], the inhibition at 50 µM is < 30%.
With `Oc1ccccc1-c1n[nH]cc1/C=C/c1ccc(Cl)cc1` [Compound 2], the inhibition at 50 µM was < 30%.
The same measure, in the same setting: in the case of `COc1ccc(/C=C/c2c[nH]nc2-c2ccccc2O)cc1` [Compound 3] it was < 30%; in that of `Oc1ccccc1-c1n[nH]cc1/C=C/c1ccccc1C(F)(F)F` [Compound 4], < 30%.
Turning to `CCCCCCCCCCn1cc(/C=C/c2ccccc2)c(-c2ccccc2O)n1` [Compound 5], the inhibition at 50 µM is < 30%.
As to `CCCCCCCCCCCCn1cc(/C=C/c2ccccc2)c(-c2ccccc2O)n1` [Compound 6], the inhibition at 50 µM was < 30%.
With `CCCCCCCCCCCCn1cc(/C=C/c2ccc(Cl)cc2)c(-c2ccccc2O)n1` [Compound 7], the inhibition at 50 µM was < 30%.
Same read-out and setting: in the case of `O=[N+]([O-])c1cccc(/C=C\c2c[nH]nc2-c2ccccc2O)c1` [Compound 8] it was < 30%.
Same read-out and setting: next, `COc1ccc(-c2n[nH]cc2/C=C\c2ccc([N+](=O)[O-])cc2)c(O)c1` [Compound 9]: < 30%; `Oc1ccccc1-c1cc(/C=C/c2ccccc2)[nH]n1` [Compound 10]: < 30%.
For `Oc1ccccc1-c1cc(/C=C/c2ccc(Cl)cc2)[nH]n1` [Compound 11], the inhibition at 50 µM was < 30%.
The same measure, in the same setting: next, `COc1ccc(/C=C/c2cc(-c3ccccc3O)nn2-c2ccccc2)cc1` [Compound 12]: < 30%; `COc1ccc(/C=C/c2cc(-c3ccccc3O)nn2S(=O)(=O)c2ccc(C)cc2)cc1` [Compound 13]: < 30%; `Cc1ccc(S(=O)(=O)Oc2ccccc2-c2cc(/C=C/c3ccccc3)n(S(=O)(=O)c3ccc(C)cc3)n2)cc1` [Compound 14]: < 30%.
With `COc1ccc(/C=C/c2cc(-c3ccccc3OS(=O)(=O)c3ccc(C)cc3)nn2S(=O)(=O)c2ccc(C)cc2)cc1` [Compound 15], the inhibition at 50 µM was < 30%.
On the same count and under the same terms, in the case of `O=c1cc(/C=C/c2ccccc2)oc2cc(O)ccc12` [Compound 16] it was < 30%.
Still for that read-out and setting: in the case of `O=c1cc(/C=C/c2ccc(O)cc2)oc2cc(O)ccc12` [Compound 17] it was < 30%.
Regarding `O=c1cc(/C=C/c2ccc(O)c(O)c2)oc2ccccc12` [Compound 18], the inhibition at 50 µM was < 30%.
Same read-out and setting: in the case of `O=c1cc(/C=C/c2ccc(O)c(O)c2)oc2cc(O)ccc12` [Compound 19] it was < 30%.
On the same count and under the same terms, in the case of `O=c1cc(/C=C/c2ccc(O)c(O)c2)oc2cccc(O)c12` [Compound 20] it was < 30%; in that of `O=c1cc(/C=C/c2ccccc2)oc2cc(O)cc(O)c12` [Compound 21], < 50%; in that of `O=c1cc(/C=C/c2ccc(O)cc2)oc2cc(O)cc(O)c12` [Compound 22], < 50%.
Same read-out and setting: next, `COc1cc(OC)c2c(=O)cc(/C=C/c3ccc(O)c(O)c3)oc2c1` [Compound 25]: < 30%; `COc1cc(OC)c2c(=O)cc(/C=C/c3ccc(OC)c(OC)c3)oc2c1` [Compound 26]: 42.2 ± 5.6%; `COc1ccc(/C=C/c2cc(=O)c3ccc(OC)c(OC)c3o2)cc1OC` [Compound 27]: < 30%.
For the compound `COc1ccc2c(=O)cc(/C=C/c3ccc(OC)c(OC)c3)oc2c1` [Compound 28], the inhibition at 50 µM was < 30%.
On the same count and under the same terms, in the case of `COc1ccc(/C=C/c2cc(=O)c3c(OC)cccc3o2)cc1OC` [Compound 29] it was < 30%; in that of `O=c1cc(/C=C/C=C/c2ccc(O)c(O)c2)oc2ccccc12` [Compound 30], < 30%; in that of `O=c1cc(/C=C/C=C/c2ccc(O)c(O)c2)oc2cccc(O)c12` [Compound 31], < 30%.
The same measure, in the same setting: next, `COc1ccc2c(=O)cc(/C=C/C=C/c3ccc(O)c(O)c3)oc2c1` [Compound 34]: 51.9 ± 1.8%; `COc1ccc2c(=O)cc(/C=C/C=C/c3ccc(OC)c(OC)c3)oc2c1` [Compound 35]: 35.8 ± 4.6%.
Same read-out and setting: in the case of `O=c1cc(-c2ccccc2)oc2cc(O)ccc12` [Compound 36] it was < 30%; in that of `O=c1cc(-c2ccc(O)cc2)oc2cc(O)ccc12` [Compound 37], < 30%; in that of `O=c1cc(-c2ccc(O)c(O)c2)oc2ccccc12` [Compound 39], < 30%.
Turning to `O=c1cc(-c2ccc(O)c(O)c2)oc2cc(O)ccc12` [Compound 40], the inhibition at 50 µM was < 30%.
For `O=c1cc(-c2ccc(O)c(O)c2)oc2cccc(O)c12` [Compound 41], the inhibition at 50 µM was < 30%.
Turning to `O=c1cc(-c2ccc(O)cc2)oc2cc(O)cc(O)c12` [Compound 42, Apigenin], the inhibition at 50 µM was determined as 35.7 ± 2.1%.
With `O=c1cc(-c2ccc(O)c(O)c2)oc2cc(O)cc(O)c12` [Compound 43, Luteolin], the inhibition at 50 µM was < 30%.
`O=c1c(O)c(-c2ccccc2)oc2cc(O)cc(O)c12` [Compound 44, Galangin]: the inhibition at 50 µM is < 30%.
In the case of `O=c1c(O)c(-c2ccc(O)c(O)c2)oc2cc(O)cc(O)c12` [Compound 45, Quercetin], the inhibition at 50 µM is < 30%.
`O=c1cc(-c2ccc(O)cc2)oc2cc(O)c(O)c(O)c12` [Compound 48, Scutellarein]: the inhibition at 50 µM was < 30%.
Still for that read-out and setting: in the case of `O=c1c(O)c(-c2ccc(O)c(O)c2)oc2cc(O)c(O)c(O)c12` [Compound 50, Quercetagetin] it was < 30%; in that of `COc1cc2oc(-c3ccccc3)cc(=O)c2c(OC)c1OC` [Compound 52, Baicalein-5,6,7-trimethylether], < 30%.

The same assay, now with this note: no glucose; mean ± SEM; read-out: GPa IC50 value.
For the compound `O=c1cc(/C=C/c2ccc(O)c(O)c2)oc2cc(O)cc(O)c12` [Compound 23], the 50% inhibitory concentration (IC50) is 31.7 ± 2.4 µM.
Consider `O=C(O)[C@H]1O[C@@H](Oc2cc3oc(-c4ccccc4)cc(=O)c3c(O)c2O)[C@H](O)[C@@H](O)[C@@H]1O` [Compound 49, Baicalin], for which the IC50 was 20.5 ± 2.5 µM.
As to `COc1cc2oc(-c3ccccc3)cc(=O)c2c(O)c1O` [Compound 51, Baicalein-7-methylether], the half-maximal inhibitory concentration (IC50) is 22.6 ± 0.4 µM.

In general, IC50 refers to the concentration needed to halve the response being measured.
